Test results taken from US20130183323A1, “TARGETED ANTIBIOTIC AND ANTIMICROBIAL TREATMENTS FOR PERSONALIZED ADMINISTRATION” (priority 2011, published 2013).
Values after ≈ are worked out from the molar mass of the structure shown.

What was measured:
Assay in all cases: minimum inhibition concentration (MIC) for tetracycline
Type in all cases: cell-based
Conditions in all cases: tetracycline resistant isolate from aquaculture environment
[1] = tested on: Plesiomonas shigelloides 17iT21
Experimental: (§1) Study 1. The variability of antibiotic resistant (ART) bacteria in responding to drug treatment was evaluated using tetracycline resistant isolates in brain heart infusion (BHI) broth. […] All strains were isolated from aquaculture environment. The bacteria in different titer were grown in BHI with different concentration of tetracycline conjugated to antibody against Enterococcus.

Enterococcus sp. 18fT3 = tested on: Enterococcus sp. 18fT3
Experimental: as §1

Enterococcus sp. 17fT4 = tested on: Enterococcus sp. 17fT4
Experimental: as §1

Structure (SMILES): CN(C)[C@@H]1C(O)=C(C(N)=O)C(=O)[C@@]2(O)C(O)=C3C(=O)c4c(O)cccc4[C@@](C)(O)[C@H]3C[C@@H]12 [tetracycline]
- MIC [1]: 64 µg/mL (≈ 144 µM)
- MIC (Enterococcus sp. 18fT3): 512 µg/mL (≈ 1150 µM)
- MIC (Enterococcus sp. 17fT4): 128 µg/mL (≈ 288 µM)
